Reference: the NIST ThermoML archive (doi:10.1016/j.jct.2016.08.005)

Conditions: Liquid, Vibrating tube method

Cc1ccsc1 [3-methylthiophene]
mass density [kg/m3]
Conditions | 313.15 K | 318.15 K | 323.15 K | 328.15 K | 333.15 K | 338.15 K
100 kPa | 1000.05 | 994.7 | 989.3 | 983.88 | 978.47 | 972.98
2000 kPa | 1001.76 | 996.44 | 991.1 | 985.74 | 980.39 | 974.96
5000 kPa | 1004.39 | 999.15 | 993.9 | 988.63 | 983.35 | 978.01
7000 kPa | 1006.11 | 1000.93 | 995.72 | 990.51 | 985.3 | 980.02
10000 kPa | 1008.64 | 1003.52 | 998.41 | 993.26 | 988.13 | 982.95
15000 kPa | 1012.71 | 1007.7 | 1002.71 | 997.7 | 992.67 | 987.63
20000 kPa | 1016.63 | 1011.74 | 1006.85 | 1001.93 | 997.03 | 992.12
25000 kPa | 1020.43 | 1015.6 | 1010.83 | 1006 | 1001.22 | 996.41
30000 kPa | 1024.08 | 1019.35 | 1014.66 | 1009.94 | 1005.22 | 1000.53
35000 kPa | 1027.61 | 1022.99 | 1018.35 | 1013.73 | 1009.12 | 1004.49
40000 kPa | 1031.05 | 1026.48 | 1021.93 | 1017.38 | 1012.87 | 1008.33
45000 kPa | 1034.35 | 1029.86 | 1025.4 | 1020.94 | 1016.49 | 1012.04
50000 kPa | 1037.58 | 1033.15 | 1028.76 | 1024.36 | 1020 | 1015.62
55000 kPa | 1040.71 | 1036.33 | 1032.03 | 1027.68 | 1023.38 | 1019.08
60000 kPa | 1043.73 | 1039.44 | 1035.18 | 1030.89 | 1026.67 | 1022.44
65000 kPa | 1046.69 | 1042.45 | 1038.24 | 1034.03 | 1029.88 | 1025.7
